Assay results: patent US20060287533A1, “SOLVENT CONTAINING 1,2,5-THIADIAZOLE COMPOUND, AND METHOD FOR EXTRACTING AN ORGANIC COMPOUND USING THE SOLVENT” (Waseda University, priority 2004, published 2006)

Columns and labels:
Type in all cases: physicochemical
[1] = Extracting activity: partition of compound between water phase and organic phase (TLC); conditions: for Ratio of content of compound in water phase against organic phase (Example 4): 2 mg compound in 100 μl 1,2,5-thiadiazole + 100 μl distilled water; for Ratio of content of compound in water phase against organic phase (Comp. Ex. 3): 2 mg compound in 100 μl chloroform + 100 μl distilled water; for Ratio of content of compound in water phase against organic phase (Comp. Ex. 4): 2 mg compound in 100 μl diethylether + 100 μl distilled water
Description: The extracting activity of 1,2,5-thiadiazole of the present invention was studied. A 2 mg of each of compounds 1 to 20 was dissolved in 100 μl of 1,2,5-thiadiazole, to which 100 μl of distilled water was added, and the system was subjected to separation operation. The ratio of the content of the compound in water phase against the counterpart in organic phase was determined using TLC, and the results are shown in Table 3.
The same procedure as in Example 4 was repeated except that 1,2,5-thiadiazole was replaced with chloroform, to determine the comparative extracting activity of chloroform.
The same procedure as in Example 4 was repeated except that 1,2,5-thiadiazole was replaced with diethylether, to determine the comparative extracting activity of diethylether.

[2] = Dissolving capability: amount of solvent needed to completely dissolve 20 mg of compound; conditions: 20 mg compound, room temperature; for Addition amount of solvent until compound completely dissolved (Example 3): solvent 1,2,5-thiadiazole, stirring; for Amount of solvent required for completely dissolving the compound (Comp. Ex. 1): solvent chloroform; for Amount of solvent required for completely dissolving the compound (Comp. Ex. 2): solvent diethylether
Description: The dissolving capability of 1,2,5-thiadiazole of the present invention was studied. A 20 mg of each of compounds 1 to 20 was transferred into a sample vial, to which 1,2,5-thiadiazole was added at room temperature with stirring. The addition was continued until the compound was completely dissolved, and the addition amount of the solvent was determined.
The same procedure as in Example 3 was repeated except that 1,2,5-thiadiazole was replaced with chloroform. The amount of the solvent required for completely dissolving the compound was determined.
The same procedure as in Example 3 was repeated except that 1,2,5-thiadiazole was replaced with diethylether. The amount of the solvent required for completely dissolving the compound was determined.

[3] = Compatibility of 1,2,5-thiadiazole with other solvents; parameters: key: ◯: Circle: fully compatible to give a uniform mixture; Triangle: giving a white turbidity; X-mark: being divided into two phases; conditions: 1,2,5-thiadiazole mixed with the listed solvent at volume ratio 1/1 (2 ml), room temperature, visual inspection
Description: For 1,2,5-thiadiazole of the present invention, its compatibility with other solvents was studied. The test consisted of mixing 1,2,5-thiadiazole with another solvent at a volume ratio of 1/1 (2 ml), allowing the system to stand at room temperature, and visually inspecting the compatibility of the former with the latter.
Circle: fully compatible to give a uniform mixture
Triangle: giving a white turbidity
X-mark: being divided into two phases

[4] = Separatory funnel phase separation of 1,2,5-thiadiazole and water; conditions: 10 ml 1,2,5-thiadiazole and 10 ml water, shaken vigorously, allowed to stand
Description: A 10 ml of 1,2,5-thiadiazole and 10 ml of water were put into a separatory funnel, and the system was shaken vigorously, to be allowed to stand.

Compound	Ratio of content of compound in water phase against organic phase (Example 4) [1]	Ratio of content of compound in water phase against organic phase (Comp. Ex. 3) [1]	Ratio of content of compound in water phase against organic phase (Comp. Ex. 4) [1]	Addition amount of solvent until compound completely dissolved (Example 3) [2] [µL]	Amount of solvent required for completely dissolving the compound (Comp. Ex. 1) [2]	Amount of solvent required for completely dissolving the compound (Comp. Ex. 2) [2]	Compatibility [3]	Phase separation from water [4]
COCOc1cc(OC)c(OC)c2c1C(=O)OC2 [Compound 10]	0/100	1/100	Hardly soluble	200	400 µL	Hardly soluble	–	–
O=C(O)CNC(=O)OCc1ccccc1 [Compound 5]	0/100	1/5	0/100	1000	2000 µL	2000 µL	–	–
CCOC(C)=O [Ethyl acetate]	–	–	–	–	–	–	◯	–
CC1(C)OCc2cc(OCCO)ccc2O1 [Compound 15]	–	–	–	100	100 µL	2400 µL	–	–
Cc1oc2ccccc2c(=O)c1C [Compound 17]	–	–	–	40	40 µL	4000 µL	–	–
COCOc1cc(OCOC)c2c(c1)C(S(=O)(=O)c1ccccc1)OC2=O (stereo not drawn) [Compound 4]	0/100	Hardly soluble	Hardly soluble	1000	Hardly soluble	Hardly soluble	–	–
CC/C=C(\C)CN1C(=O)OC[C@H]1C(C)C [Compound 12]	–	–	–	200	200 µL	200 µL	–	–
c1ccccc1 [Benzene]	–	–	–	–	–	–	◯	–
O=C1C(OCc2ccccc2)=C[C@@H](CO)[C@@H]1CO [Compound 3]	1/5	4/5	Hardly soluble	160	200 µL	Insoluble	–	–
CCO [Ethanol]	–	–	–	–	–	–	◯	–
CO[C@H]1OC2COC(c3ccccc3)O[C@H]2C(O)C1NS(=O)(=O)c1ccc(C)cc1 (stereo partly drawn) [Compound 8]	1/15	1/15	1/15	200	240 µL	1600 µL	–	–
CC#N [Acetonitrile]	–	–	–	–	–	–	◯	–
Cc1ccc(S(=O)(=O)OCCC2(CCS(=O)(=O)c3ccccc3)OCCO2)cc1 [Compound 6]	0/100	1/5	Hardly soluble	1000	2000 µL	Hardly soluble	–	–
CC(=O)Oc1ccc(OC(C)=O)c(OC(C)=O)c1 [Compound 7]	0/100	0/100	0/100	100	200 µL	2000 µL	–	–
CC(C)(C)[Si](C)(C)OCC1=CC2(OCCO2)C(O)C(O)C1=O (stereo not drawn) [Compound 11]	–	–	–	200	400 µL	Hardly soluble	–	–
COCCCCC(O)C(O)C(=O)OC (stereo not drawn) [Compound 16]	–	–	–	100	100 µL	200 µL	–	–
CC(=O)OCC1OCCC(OC(C)=O)[C@@H]1OC(C)=O (stereo partly drawn) [Compound 18]	–	–	–	200	200 µL	200 µL	–	–
O=C1C=CC2(C=C1CO)OCCO2 [Compound 14]	–	–	–	100	100 µL	2000 µL	–	–
Cc1ccc(S(=O)(=O)O[C@@H]2C(C)O[C@@H](OCc3ccccc3)C3OC(=O)OC32)cc1 (stereo partly drawn) [Compound 9]	0/100	0/100	0/100	20	200 µL	6000 µL	–	–
CCCCCC [n-Hexane]	–	–	–	–	–	–	◯	–
CC(C)=O [Acetone]	–	–	–	–	–	–	◯	–
CO [Methanol]	–	–	–	–	–	–	◯	–
CN(C)C=O [Dimethylformamide]	–	–	–	–	–	–	◯	–
Cc1ccccc1 [Toluene]	–	–	–	–	–	–	◯	–
Xylene	–	–	–	–	–	–	◯	–
O=C1Cc2ccccc2N1 [Compound 1]	1/100	1/10	1/5	100	400 µL	2000 µL	–	–
CCCCCC(=O)CC(=O)NC1CCOC1=O (stereo not drawn) [Compound 19]	–	–	–	100	100 µL	4800 µL	–	–
1,2,5-thiadiazole	–	–	–	–	–	–	–	clearly divided into two phases
O [Water]	–	–	–	–	–	–	X	–
CO[C@H]1OC(COCc2ccccc2)[C@H](N=[N+]=[N-])CC1NS(=O)(=O)c1ccc(C)cc1 (stereo partly drawn) [Compound 2]	0/100	1/50	1/4	140	240 µL	1600 µL	–	–
